From US20260085082A1, “KDM1A INHIBITORS FOR THE TREATMENT OF DISEASE” (Imago Biosciences, Inc., priority 2022, published 2026)
pIC50: −log10 of the molar value. Where two headings read alike, the source gives them in different places.

Legend:
LSD1 = LSD1 (Homo sapiens, UniProt O60341); assay: LSD1 10-dose IC50 fluorescence coupling enzyme assay (HRP/Amplex Red, resorufin); type: biochemical; conditions: 10 M histone H3(1-21)K4me2 peptide substrate; 3-fold serial dilution in duplicate starting at 100 μM
Experimental: Compounds were tested in a 10-dose IC50 mode fluorescence coupling enzyme assay with 3-fold serial dilution in duplicate starting at 100 μM. The production of FAD-dependent H2O2 as a result of demethylase activity of LSD1 on […] histone H3(1-21)K4me2 peptide substrate was measured by coupling with HRP and Amplex Red to yield resorufin (fluorescence measured at Ex/Em=535/590 nm on EnVision, Perkin Elmer).

MV4;11 cells = assay: Cell Titer-Glo Luminescent Cell Viability Assay, cell growth inhibition against MV4;11 cells; type: cell-based; conditions: Homo sapiens
Outline: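 MV4;11 cells seeded at 3750/well, exposed to a 10-point 4-fold dilution series (0–50 μM); on Day 5 cells were split into fresh compound and media and grown to Day 10. Viability by CellTiter-Glo ATP luminescence at Day 5 and Day 10; IC50 from dose curves.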

[1] = MV4-11, 120 h, MV4;11 cells, Day 5, 10-point dose curve 0 to 50 μM, read-out: Cell Titer Glo IC50 (5 d)
[2] = MV4-11, MV4;11 cells, Day 10 (re-seeded at Day 5 with fresh compound), 10-point dose curve 0 to 50 μM, read-out: Cell Titer Glo IC50 (10 d)

Row | Compound | pIC50 (LSD1) | pIC50 (MV4;11 cells; [1]) | pIC50 (MV4;11 cells; [2])
1 | COc1ccc(-n2nc(C(=O)N3CCCC(N)C3)cc2-c2ccc(C#N)cc2)cc1 (stereo not drawn) [Example 2, 4-(3-(3-Aminopiperidine-1-carbonyl)-1-(4-methoxyphenyl)-1H-pyrazol-5-yl)benzonitrile] | > 6.30 | 6.00 to 6.30 | –
2 | N#Cc1ccc(-c2cc(C(=O)N3CCC[C@@H](N)C3)nn2-c2ccc(N3CCC(C#N)CC3)cc2)cc1F [Example 48, (R)-1-(4-(3-(3-aminopiperidine-1-carbonyl)-5-(4-cyano-3-fluorophenyl)-1H-pyrazol-1-yl)phenyl)piperidine-4-carbonitrile 2,2,2-trifluoroacetate] | > 6.30 | – | > 6.30
3 | COc1ccc(-n2nc(-c3ccc(C#N)cc3)cc2C(=O)N2CCCC(N)C2)cc1 (stereo not drawn) [Example 4, 4-(5-(3-Aminopiperidine-1-carbonyl)-1-(4-methoxyphenyl)-1H-pyrazol-3-yl)benzonitrile] | > 6.30 | 5.00 to 6.00 | –
4 | Cn1ncc2cc(-n3nc(C(=O)N4CCC[C@H](N)C4)cc3-c3ccc(C#N)c(F)c3)ccc21 [Example 42, (S)-4-(3-(3-aminopiperidine-1-carbonyl)-1-(1-methyl-1H-indazol-5-yl)-1H-pyrazol-5-yl)-2-fluorobenzonitrile 2,2,2-trifluoroacetate] | > 6.30 | 6.00 to 6.30 | > 6.30
5 | COc1ccc(-n2nc(-c3ccc(C#N)c(F)c3)cc2C(=O)N2CCCC(N)C2)cc1 (stereo not drawn) [Example 17, 4-(5-(3-Aminopiperidine-1-carbonyl)-1-(4-methoxyphenyl)-1H-pyrazol-3-yl)-2-fluorobenzonitrile] | > 6.30 | 5.00 to 6.00 | –
6 | Cn1cc(-c2ccc(-n3nc(C(=O)N4CCC[C@@H](N)C4)cc3-c3ccc(C#N)c(F)c3)cc2)cn1 [Example 66, (R)-4-(3-(3-aminopiperidine-1-carbonyl)-1-(4-(1-methyl-1H-pyrazol-4-yl)phenyl)-1H-pyrazol-5-yl)-2-fluorobenzonitrile 2,2,2-trifluoroacetate] | > 6.30 | – | > 6.30

Now from value to compound, other results behind:

Row | pIC50 (LSD1) | pIC50 (MV4;11 cells; [1]) | Compound | pIC50 (MV4;11 cells; [2])
7 | < 5.00 | < 5.00 | COc1ccc(-n2cc(C(=O)N3CCCC(N)C3)c(-c3ccc(C#N)cc3)n2)cc1 (stereo not drawn) [Example 87, 4-(4-(3-aminopiperidine-1-carbonyl)-1-(4-methoxyphenyl)-1H-pyrazol-3-yl)benzonitrile] | –
8 | > 6.30 | 5.00 to 6.00 | Cc1ccc(-n2nc(C(=O)N3CCCC(CN)C3)cc2-c2ccc(C#N)c(F)c2)cc1 (stereo not drawn) [Example 7, 4-(3-(3-(Aminomethyl)piperidine-1-carbonyl)-1-(p-tolyl)-1H-pyrazol-5-yl)-2-fluorobenzonitrile] | –
9 | > 6.30 | 5.00 to 6.00 | COc1ccc(-n2nc(NC(=O)[C@@H]3CCNC3)cc2-c2ccc(C#N)c(F)c2)cc1 [Example 94, (R)-N-(5-(4-cyano-3-fluorophenyl)-1-(4-methoxyphenyl)-1H-pyrazol-3-yl)pyrrolidine-3-carboxamide 2,2,2-trifluoroacetate] | –
10 | 6.00 to 6.30 | 5.00 to 6.00 | COc1ccc(-n2nc(C(=O)N[C@H]3CCNC3)cc2-c2ccc(C#N)c(F)c2)cc1 [Example 26, (S)-5-(4-cyano-3-fluorophenyl)-1-(4-methoxyphenyl)-N-(pyrrolidin-3-yl)-1H-pyrazole-3-carboxamide 2,2,2-trifluoroacetate] | –
